Measured values: patent publication US5208220A, “Composition and treatment with biologically active peptides and antibiotics which inhibit DNA gyrase” (priority 1991, dated 1993)
Where no end group is shown, it is not given here.

Assays:
Format in all cases: cell-based
Settings in all cases: compound alone
[1] = tested on: isolates of strain MR-PSA (multiply resistant) Pseudomonas aeruginosa; assay: MIC in microtiter plates, Mueller-Hinton broth (Examples 2 and 3)
Procedure: For Examples 2 and 4, microorganisms employed in the assays were grown according to the procedure described in Stutman, et al., Antimicrobial Agents in Chemotherapy, Vol. 34, July 1990.
The final assays were then conducted in microtiter plates containing Mueller-Hinton broth 10^5 organisms were added to each well.
The minimal inhibitory concentrations, (MIC's), according to the procedure of Example 2, were tested against various isolates of strain MR-PSA, of Pseudomonas aeruginosa, except that Peptide 4 replaces Peptide 1.

[2] = tested on: P.aeruginosa strain 107 (which is gentamicin - resistant); assay: MIC in trypticase soy broth, test wells (Example 1)
Procedure: (§1) Approximately 1-5×10^5 colony forming units (CFU's) of P.aeruginosa strain 27853 or of P.aeruginosa strain 107 (which is gentamicin - resistant) dispersed in 100 ul of trypticase soy broth (TSB) were added to each of a series of test wells. […] For purposes of this example, Peptide 1 is amide-terminated Magainin II, Peptide 2 is of the following structural formula: […]

[3] = tested on: P.aeruginosa strain 27853; assay: as above
Procedure: as §1

## GIGKFLHSAKKFGKAFVGEIMNS-NH2 [Peptide 1]
[1]; Table 2, MR-PSA isolate 1
  MIC: 32 µg/mL
[1]; Table 2, MR-PSA isolate 2
  MIC: > 256 µg/mL
[1]; Table 2, MR-PSA isolate 3
  MIC: 32 µg/mL
[1]; Table 2, MR-PSA isolate 4
  MIC: 256 µg/mL
[2]
  MIC: > 32 µg/mL
[3]
  MIC: > 32 µg/mL
